One series has as its system BTLA/HVEM interaction. The series can be described thus: Cellular reporter assay, HVEM reporter cells (JE6.1-NF-κB::eGFP) stimulated with TCS-BTLA. The series is classed as cell-based, human. The conditions noted are these: 30 min preincubation, 24 h coculture, NF-κB::eGFP by flow cytometry, mean of four independent experiments in duplicate. The method, then: In the next step of the study, the inhibitory properties of the designed peptides were evaluated using previously described cell-based assays. The experiment utilized reporter cells expressing HVEM (JE6.1-NF-κB::eGFP) and T cell stimulator cells expressing BTLA (TCS-BTLA). Activation of the reporter cells by TCS followed a two-signal model. The first is generated through the interaction between the T cell receptor–cluster of differentiation 3 (TCR–CD3) complex on the surface of the reporter cells and a membrane-bound antihuman CD3 single-chain antibody fragment (mAb aCD3) expressed on the TCS cells. The second signal is provided by the binding of HVEM and BTLA, which in this assay results in a strong costimulatory signal via HVEM. Activation of the reporter cells leads to the expression of nuclear factor kappa light chain enhancer of activated B cells (NF-κB), which correlates with the level of enhanced green fluorescent protein (eGFP), measured by flow cytometry. In the absence of peptides, NF-κB expression is normalized to 100%. Disruption of the BTLA/HVEM interaction by peptides results in a concentration-dependent decrease in NF-κB levels. In this study, HVEM-expressing reporter cells were stimulated with BTLA-expressing TCS cells in the presence or absence of tested peptides at three different concentrations.
Cellular studies were performed in the same procedure as we described previously for gD- and BTLA-derived peptides. , The peptides were dissolved in the medium, and their final concentrations in wells were 150, 50, and 16,7 μM. Briefly, reporter cells expressing HVEM (JE6.1-NF-κB::eGFP) (5 × 10^4 cells/well) were preincubated with peptides for 30 min in a 96-well flat-bottom plate. Subsequently, the second cell line expressing BTLA (TCS BTLA) or LIGHT (TCS LIGHT) (2 × 10^4 cells/well) was added and cocultured for 24 h at 37 °C in an atmosphere of 5% CO2. Next, an APC-conjugated mCD45.2 antibody to exclude TCS from the reporter cells was added. The expression of the reporter gene (eGFP) was measured via flow cytometry using a CytoFLEX flow cytometer (Beckman Coulter Inc., Brea, CA, USA), and the results were analyzed using FlowJo v10.10 (FlowJo LLC, Ashland, OR, USA). The data were analyzed using GraphPad Prism 8 software (San Diego, CA, USA).

Series [1] can be described thus: NMR in PBS-buffered aqueous solution (aggregation). The conditions noted are these: 298 K, 2 mM sample. The format is physicochemical. The method, then: First, circular dichroism (CD) spectra were recorded for this peptide in H2O and phosphate-buffered saline (PBS). In water, the peptide adopts a disordered structure, characterized by a minimum at 197 nm. In contrast, in PBS, it undergoes conformational ordering, forming a β-strand structure with a minimum at 214 nm and maximum at 197 nm. […] To further investigate the peptide’s structure, nuclear magnetic resonance (NMR) spectra were acquired in both buffer-free aqueous solution and PBS-buffered aqueous solution. […] Narrow amide proton chemical shift dispersion (ΔδHN = 0.7 ppm), absence of medium- and long-range nuclear Overhauser effects (NOEs), and ^3JNα coupling constants indicate a lack of well-defined secondary structure (Figures S9 and S10). […] Molecular dynamics simulations with NOE-derived distance restraints generated an ensemble of structures showing high conformational diversity. […]
NMR spectra were acquired at 298 K on Bruker spectrometers (^1H 700.55 MHz, 16.4 T and 500.13 MHz, 11.7 T). […] The ^1H–^13C HSQC spectrum was recorded at the natural abundance of the ^13C isotope. […] Spectra were processed and analyzed, respectively, with Topspin 4.4.1 (Bruker, Ettlingen, Germany) and NMRFAM-Sparky software packages. […]

Where “and” joins values, the source holds several entries; their conditions need not be identical. Equal entries are not always repeated. Where a SMILES comes first, the peptide text is derived from it.

With `CC[C@@H]1NC(=O)[C@@H](NC(=O)[C@H](CCC(N)=O)NC(=O)[C@H](Cc2ccc(O)cc2)NC(C)=O)CSSC[C@@H](C(=O)N[C@@H](Cc2c[nH]cn2)C(=O)N[C@@H](Cc2ccccc2)C(=O)N[C@@H](Cc2ccccc2)C(N)=O)NC(=O)[C@H](CCC(N)=O)NC(=O)[C@H](CC(C)C)NC(=O)[C@H](CCCNC(=N)N)NC(=O)[C@H]([C@@H](C)CC)NC(=O)CNC(=O)[C@H](CO)NC(=O)[C@H](CCCCN)NC(=O)[C@H](CCC(N)=O)NC(=O)[C@H](CO)NC(=O)[C@H](CCCNC(=N)N)NC(=O)[C@H](C)NC1=O` [A5, CD160(110–128) ^(C113X,G125C)] (HELM PEPTIDE1{[ac].Y.Q.C.[Abu].A.R.S.Q.K.S.G.I.R.L.Q.C.H.F.F.[am]}$PEPTIDE1,PEPTIDE1,4:R3-17:R3$$$V2.0), in the series on BTLA/HVEM interaction (peptide 16.67 μM), the “Inhibition - Cellular assay 16.67 µM” value is ~14% and 14.03%. Moreover, in the series with BTLA/HVEM interaction (peptide 50 μM), the “Inhibition - Cellular assay 50 µM” value came out at 59.04%. The “Inhibition - Cellular assay 150 µM” value in the series on BTLA/HVEM interaction (peptide 150 μM) came to 80.42%. Moreover, in series [1], the “Aggregation in PBS (NMR signal broadening)” value was “peptide aggregation”.

(Values after PMC12714101, “CD160-Derived Peptide as a Bidirectional Inhibitor Toward Immune Checkpoints BTLA/HVEM and HVEM/LIGHT” (Journal of Medicinal Chemistry, 2025).)
